Results from patent US10189839B2, “Tricyclic imidazole compounds as inhibitors of tryptophan hydroxylase” (ACTELION PHARMACEUTICALS LTD, priority 2013, dated 2019).

Target: T1, full length human TPH1 (Homo sapiens, UniProt P17752)
T1 construct: To generate the enzyme, full length human TPH1 is cloned into the plasmid pET20b(+); made in house; host or cells: E. coli
T1 sequence (P17752 1-444): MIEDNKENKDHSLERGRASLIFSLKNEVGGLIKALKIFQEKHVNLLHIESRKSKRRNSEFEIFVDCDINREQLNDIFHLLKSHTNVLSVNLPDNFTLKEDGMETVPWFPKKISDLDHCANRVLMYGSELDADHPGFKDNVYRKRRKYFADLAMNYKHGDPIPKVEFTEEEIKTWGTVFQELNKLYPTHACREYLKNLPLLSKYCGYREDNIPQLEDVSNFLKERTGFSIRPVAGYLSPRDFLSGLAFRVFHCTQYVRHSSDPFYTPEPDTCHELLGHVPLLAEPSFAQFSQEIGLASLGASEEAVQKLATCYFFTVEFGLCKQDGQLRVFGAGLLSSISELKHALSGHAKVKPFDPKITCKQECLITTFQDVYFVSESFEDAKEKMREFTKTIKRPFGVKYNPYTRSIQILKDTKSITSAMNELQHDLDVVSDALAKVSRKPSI
Test: Biochemical in vitro assay using fluorescence readout (TPH1 enzyme activity)
Conditions: Table 1, mean where determined several times
Method in brief: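 E. coli-expressed full-length human TPH1 (40-80 nM), affinity- and size-exclusion-purified, incubated 60 min at 15° C. in 0.1M Tris-HCl pH 7.6 with 1 mM DTT, 0.2 mg/ml catalase, 100 μM 6-methyltetrahydropterine and 40 μM L-tryptophan. 5-Hydroxy-L-tryptophan read by fluorescence (ex 300/em 540 nm) after HClO4 quench; IC50 versus vehicle, mean where repeated.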

IC50 [nM]	SMILES
9	O=C(NC1CC1)c1ccc(OCC(=O)N2CCc3nc4n(c3C2c2ccc(Cl)cc2F)CCS4)c(Cl)n1 (centres unmarked) [Example 4.1.12, 6-chloro-5-(2-(5-(4-chloro-2-fluorophenyl)-2,3,7,8-tetrahydrothiazolo[2′,3′:2,3]imidazo[4,5-c]pyridin-6(5H)-yl)-2-oxoethoxy)-N-cyclopropylpicolinamide]
25	CC(=O)N1CCn2c(nc3c2C(c2ccc(C4CC4)cc2F)N(C(=O)COc2cc(F)cnc2Cl)CC3)C1 (centres unmarked) [Example 5.2.16, 1-(7-acetyl-1-(4-cyclopropyl-2-fluorophenyl)-3,4,6,7,8,9-hexahydropyrido[4′,3′:4,5]imidazo[1,2-a]pyrazin-2(1H)-yl)-2-((2-chloro-5-fluoropyridin-3-yl)oxy)ethanone]
92	N#Cc1ccc(OCC(=O)N2CCc3nc4n(c3C2c2ccc(C3CC3)cc2F)CCNC4)c(Cl)c1 (centres unmarked) [Example 5.2.9, 3-chloro-4-(2-(1-(4-cyclopropyl-2-fluorophenyl)-3,4,6,7,8,9-hexahydropyrido[4′,3′:4,5]imidazo[1,2-a]pyrazin-2(1H)-yl)-2-oxoethoxy)benzonitrile]
16	CCc1nc(C(=O)NC2CC2)ccc1OCC(=O)N1CCc2nc3n(c2[C@@H]1c1ncc(C2CC2)cc1F)CCS3 [Example 4.2.3, (R)-N-cyclopropyl-5-(2-(5-(5-cyclopropyl-3-fluoropyridin-2-yl)-2,3,7,8-tetrahydrothiazolo[2′,3′:2,3]imidazo[4,5-c]pyridin-6(5H)-yl)-2-oxoethoxy)-6-ethylpicolinamide]
11	Cc1ccc(C2c3c(nc4n3CCCC4)CCN2C(=O)COc2ccc(-c3ncco3)nc2Cl)c(F)c1 (centres unmarked) [Example 1.2.2, 2-((2-chloro-6-(oxazol-2-yl)pyridin-3-yl)oxy)-1-(1-(2-fluoro-4-methylphenyl)-3,4,6,7,8,9-hexahydroimi-dazo[1,2-a:5,4-c′]dipyridin-2(1H)-yl)ethanone]
22	Cc1ccc(C2c3c(nc4n3CCCC4)CCN2C(=O)COc2ccc(C(=O)N(C)C3CC3)nc2Cl)c(F)c1 (centres unmarked) [Example 1.2.3, 6-chloro-N-cyclopropyl-5-(2-(1-(2-fluoro-4-methyl-phenyl)-3,4,6,7,8,9-hexahydroimidazo[1,2-a:5,4-c′]dipyridin-2(1H)-yl)-2-oxoethoxy)-N-methylpicolinamide]
76	CN(C)C(=O)c1ccc(OCC(=O)N2CCc3nc4n(c3C2c2ncc(Cl)cc2F)CCOC4)c(Cl)n1 (centres unmarked) [Example 6.4.2, 6-chloro-5-(2-(6-(5-chloro-3-fluoropyridin-2-yl)-3,4,8,9-tetrahydro-1H-pyrido[4′,3′:4,5]imidazo[2,1-c][1,4]oxazin-7(6H)-yl)-2-oxoethoxy)-N,N-dimethylpicolinamide]
19	COCc1ccc(C2c3c(nc4n3CCCC4)CCN2C(=O)COc2ccc(C(=O)NC3CC3)nc2Cl)c(F)c1 (centres unmarked) [Example 1.26.1, 6-chloro-N-cyclopropyl-5-(2-(1-(2-fluoro-4-(methoxymethyl)phenyl)-3,4,6,7,8,9-hexahydroimidazo[1,2-a:5,4-c′]dipyridin-2(1H)-yl)-2-oxoethoxy)picolinamide]
26	Cc1ccc(C2c3c(nc4n3CCCC4)CCN2C(=O)COc2ccc(NS(C)(=O)=O)nc2Cl)c(F)c1F (centres unmarked) [Example 1.9.2, N-(6-chloro-5-(2-(1-(2,3-difluoro-4-methylphenyl)-3,4,6,7,8,9-hexahydroimidazo[1,2-a:5,4-c′]dipyridin-2(1H)-yl)-2-oxoethoxy)pyridin-2-yl)methanesulfonamide]

Continued, compound first:

SMILES	IC50 [nM]
CS(=O)(=O)Nc1ccc(OCC(=O)N2CCc3nc4n(c3C2c2ccc(Cl)cc2F)CCC4)c(Cl)n1 (centres unmarked) [Example 2.1.1, N-(6-chloro-5-(2-(1-(4-chloro-2-fluorophenyl)-3,4,7,8-tetrahydro-1H-pyrrolo[2′,1′:2,3]imidazo[4,5-c]pyridin-2(6H)-yl)-2-oxoethoxy)pyridin-2-yl)methanesulfonamide]	13
CC(=O)N1CCn2c(nc3c2C(c2ncc(Cl)cc2F)N(C(=O)COc2ccc(N4CCOCC4)nc2Cl)CC3)C1 (centres unmarked) [Example 5.9.1, 1-(7-acetyl-1-(5-chloro-3-fluoropyridin-2-yl)-3,4,6,7,8,9-hexahydropyrido[4′,3′:4,5]imidazo[1,2-a]pyrazin-2(1H)-yl)-2-((2-chloro-6-morpholinopyridin-3-yl)oxy)ethanone]	8
CCc1nc(NS(C)(=O)=O)ccc1OCC(=O)N1CCc2nc3n(c2C1c1ncc(C2CC2)cc1F)CCS3 (centres unmarked) [Example 4.2.2, N-(5-(2-(5-(5-cyclopropyl-3-fluoropyridin-2-yl)-2,3,7,8-tetrahydrothiazolo[2′,3′:2,3]imidazo[4,5-c]pyridin-6(5H)-yl)-2-oxoethoxy)-6-ethylpyridin-2-yl)methanesulfonamide]	8
CCc1nc(C(=O)NC2CC2)ccc1OCC(=O)N1CCc2nc3n(c2C1c1sc(C)nc1C)CCS3 (centres unmarked) [Example 4.5.3, N-cyclopropyl-5-(2-(5-(2,4-dimethylthiazol-5-yl)-2,3,7,8-tetrahydrothiazolo[2′,3′:2,3]imidazo[4,5-c]pyridin-6(5H)-yl)-2-oxoethoxy)-6-ethylpicolinamide]	6
CC(=O)N1CCn2c(nc3c2C(c2sc(C(=O)N(C)C)cc2F)N(C(=O)COc2ccc(N4CCOCC4)nc2Cl)CC3)C1 (centres unmarked) [Example 5.7.2, 5-(7-acetyl-2-(2-((2-chloro-6-morpholinopyridin-3-yl)oxy)acetyl)-1,2,3,4,6,7,8,9-octahydropyrido[4′,3′:4,5]imidazo[1,2-a]pyrazin-1-yl)-4-fluoro-N,N-dimethylthiophene-2-carboxamide]	6
COCCOc1ccc(C2c3c(nc4n3CCCC4)CCN2C(=O)COc2ccc(NS(C)(=O)=O)nc2Cl)c(F)c1 (centres unmarked) [Example 1.27.2, N-(6-chloro-5-(2-(1-(2-fluoro-4-(2-methoxyethoxy)phenyl)-3,4,6,7,8,9-hexahydroimidazo[1,2-a:5,4-c′]dipyridin-2(1H)-yl)-2-oxoethoxy)pyridin-2-yl)methanesulfonamide]	34
CCc1nc(NS(C)(=O)=O)ccc1OCC(=O)N1CCc2nc3n(c2C1c1ccc(Cl)cc1F)CCC3 (centres unmarked) [Example 2.1.2, N-(5-(2-(1-(4-chloro-2-fluorophenyl)-3,4,7,8-tetrahydro-1H-pyrrolo[2′,1′:2,3]imidazo[4,5-c]pyridin-2(6H)-yl)-2-oxoethoxy)-6-ethylpyridin-2-yl)methanesulfonamide]	13
CC(=O)N1CCn2c(nc3c2C(c2ncc(C)cc2F)N(C(=O)COc2ccc(N4CC(F)(F)C4)nc2Cl)CC3)C1 (centres unmarked) [Example 5.8.2, 1-(7-acetyl-1-(3-fluoro-5-methylpyridin-2-yl)-3,4,6,7,8,9-hexahydropyrido[4′,3′:4,5]imidazo[1,2-a]pyrazin-2(1H)-yl)-2-((2-chloro-6-(3,3-difluoroazetidin-1-yl)pyridin-3-yl)oxy)ethanone]	51
CS(=O)(=O)Nc1ccc(OCC(=O)N2CCc3nc4n(c3C2c2ccc(OC(F)(F)F)cc2F)CCCC4)c(Cl)n1 (centres unmarked) [Example 1.20.2, N-(6-chloro-5-(2-(1-(2-fluoro-4-(trifluoromethoxy)phenyl)-3,4,6,7,8,9-hexahydroimidazo[1,2-a:5,4-c′]dipyridin-2(1H)-yl)-2-oxoethoxy)pyridin-2-yl)methanesulfonamide]	37
CCc1cc(F)ccc1OCC(=O)N1CCc2nc3n(c2C1c1ncc(C2CC2)cc1F)CCNC3 (centres unmarked) [Example 5.4.4, 1-(1-(5-cyclopropyl-3-fluoropyridin-2-yl)-3,4,6,7,8,9-hexahydropyrido[4′,3′:4,5]imidazo[1,2-a]pyrazin-2(1H)-yl)-2-(2-ethyl-4-fluorophenoxy)ethanone]	329
CCc1nc(NS(C)(=O)=O)ccc1OCC(=O)N1CCc2nc3n(c2C1c1sc(C)nc1C)CCS3 (centres unmarked) [Example 4.5.1, N-(5-(2-(5-(2,4-dimethylthiazol-5-yl)-2,3,7,8-tetrahydrothiazolo[2′,3′:2,3]imidazo[4,5-c]pyridin-6(5H)-yl)-2-oxoethoxy)-6-ethylpyridin-2-yl)methanesulfonamide]	16
CCc1nc(NS(C)(=O)=O)ncc1OCC(=O)N1CCc2nc3n(c2C1c1ccc(C2CC2)cc1F)CCCC3 (centres unmarked) [Example 1.8.7, N-(5-(2-(1-(4-cyclopropyl-2-fluorophenyl)-3,4,6,7,8,9-hexahydroimidazo[1,2-a:5,4-c′]dipyridin-2(1H)-yl)-2-oxoethoxy)-4-ethylpyrimidin-2-yl)methanesulfonamide]	54
Cc1ccc(C2c3c(nc4n3CCN(C(=O)OC(C)(C)C)C4)CCN2C(=O)COc2ccc(CN3CCOCC3)cc2Cl)c(F)c1 (centres unmarked) [Example 5.12.1, tert-butyl 2-(2-(2-chloro-4-(morpholinomethyl)phenoxy)acetyl)-1-(2-fluoro-4-methylphenyl)-1,2,3,4,8,9-hexahydropyrido[4′,3′:4,5]imidazo[1,2-a]pyrazine-7(6H)-carboxylate]	310
CCc1nc(C)ccc1OCC(=O)N1CCc2nc3n(c2C1c1ccc(Cl)cc1F)CCCC3 (centres unmarked) [Example 1.1.15, 1-(1-(4-chloro-2-fluorophenyl)-3,4,6,7,8,9-hexahydroimidazo[1,2-a:5,4-c′]dipyridin-2(1H)-yl)-2-((2-ethyl-6-methylpyridin-3-yl)oxy)ethanone]	39
